Data set [1] deals with mouse cutaneous melanoma cells (B16F10). The data set is described as follows: Cytotoxicity, cell counting kit-8 (CCK-8). As to conditions: B16F10, 0 to 200 μM, incubated for an hour. Type of data set: cell-based. As for the experimental part: The present inventors confirmed the cytotoxicity of compound 1 in mouse cutaneous melanoma cells (B16F10) using a cell counting kit-8 (CCK-8) method (Dojindo laboratories, Kumamoto, Japan).
More particularly, the B16F10 cells were incubated for 24 hours (at 37° C.) at a density of 5000 cells/well in a 96-well plate under a 5% CO2 atmosphere. The cells were treated with an increasing concentration of compound 1 (10 μM, 30 μM, 50 μM, 100 μM, and 200 μM) in a DMSO solvent, and then incubated for an hour. Thereafter, the cells were treated with 10 μL of a CCK-8 solution, and then incubated for 2 hours.

Data set [2] has as its target T1, PDGFRa (Homo sapiens, UniProt P16234).
T1 construct: purchased Carna Biosciences
The data set is described as follows: KINOMEscan competition binding (DiscoveRX). Particulars: lower value means stronger binding. An excerpt:
(§1) More particularly, to determine selectivities to various kinds of kinase enzymes, the samples were entrusted to DiscoveRX (U.S.A), which was able to determine the binding affinities to a total of 96 kinase enzymes, to perform KINOMEscan experiments. This company treated all kinds of information on the entrusted samples as confidential, and analyzed the sample with charge. Compound 1 was provided to the company, and the company performed the KINOMEscan experiments, and provided the results (DiscoveRX corp.)
(§2) KINOMEscan is an experiment in which compound 1 and a compound (a material strongly binding to kinase enzymes) competing for compound 1 are treated with a kinase enzyme at the same time to determine how many the competing compound binds to active sites of the kinase enzymes, compared with compound 1. In this experiment, an experimental value is expressed as a percentile value. In this case, a lower percentile value means that compound 1 more strongly bind to the kinase enzymes.

Data set [3] concerns the target T2, TYK2 (Homo sapiens, UniProt P29597).
T2 construct: purchased DiscoveRX (contract KINOMEscan service)
The data set is described as follows: KINOMEscan competition binding (DiscoveRX). Particulars: lower value means stronger binding.
Source text: as §1, §2

In data set [4] the target is T3, RSK2 (Homo sapiens, UniProt P51812).
T3 construct: purchased DiscoveRX (contract KINOMEscan service)
Description: KINOMEscan competition binding (DiscoveRX). As to conditions: lower value means stronger binding.
Source text: as §1, §2

Data set [5] has as its system 96 kinase enzymes. The data set is described as follows: KINOMEscan competition binding (DiscoveRX).
Source text: as §1, §2

Data set [6] has as its target T4, ABL1 (T315I) (Homo sapiens, UniProt P00519, T315I).
T4 construct: purchased DiscoveRX (contract KINOMEscan service)
Description: KINOMEscan competition binding (DiscoveRX). Particulars: lower value means stronger binding.
Source text: as §1, §2

In data set [7] the target is T5, BRAF (Homo sapiens, UniProt P15056).
T5 construct: purchased DiscoveRX (contract KINOMEscan service)
Description: KINOMEscan competition binding (DiscoveRX). Particulars: lower value means stronger binding.
Source text: as §1, §2

Data set [8] has as its system six kinase enzymes: ABL, BRAF, PDGFRa, RSK2, Src, TYK2. The data set is described as follows: Effect of kinase inhibitor on binding of compound 1 to kinase enzymes (fluorescence intensity).
Description: In this experiment, a buffer (100 mM HEPES buffer, pH 7.4) was used as the solvent, and a kinase commercially available from Carna Biosciences was used as the kinase enzyme. Here, each kinase enzyme was stored at −80° C. together with a solvent (50 mM Tris-HCl, 150 mM NaCl, 0.1% CHAPS, 1 mM DTT, and 10% Glycerol, pH 7.5) kindly provided by the manufacturer. […] A 96-well fluorescence assay plate (commercially available from SPL Life Science) was used as a plate used upon measurement of fluorescence, and a VCITOR 3 multilabel counter (commercially available from Perkin Elmer-Wellesley) was used as a measuring machine. A 355 nm-thick filter was used to produce excitation wavelengths of the measuring machine, and a 535 nm-thick filter was used to produce emission wavelengths of the measuring machine. […]
More particularly, an effect of the inhibitor on a total of the six kinase enzymes was determined, and the six kinase enzymes are as follows: (A) ABL, (B) BRAF, (C) PDGFRa, (D) RSK2, (E) Src, and (F) TYK2. […]
In this case, compound 1 (100 μM), ATP (1 mM), Mg (1 mM), and a kinase enzyme (0.2 μg/ml) were stirred for 24 hours (at 37° C.), and an inhibitor (100 μM) was then treated. […] Here, a left bar of each of A to F represents a fluorescence intensity before treatment of the inhibitor, and a right bar of each of A to F represents a fluorescence intensity after treatment of the inhibitor.
In data set [9] the test system is mouse melanoma skin cancer B16F10 tissues. The data set is described as follows: In vivo two-photon microscopy and OCT imaging of mouse ear transplanted with skin cancer tissues. As for the experimental part:
More particularly, a mouse's ear was transplanted with skin cancer tissues (mouse melanoma skin cancer B16F10), and treated with compound 1 to determine that fluorescence was selectively observed in a site of cancer in living mice under a two-photon microscope. 6-month-old, SPF/VAF immunodeficent female nude mice (BALB/c-nude mice, OrientBio corp.) were used as the mice, and the B16F10 cancer cells were prepared in the same manner as in Example 12. Then, the concentrated cancer cells from which a solution was removed using a centrifuge were injected into one ear of each mouse using a syringe. After 4 day, formation of cancer tissues in the mouse's ear was checked, and 10 μL of compound 1 (10 mM) was injected into the one ear of each mouse. […] After 30 minutes, the mice were anesthetized by […], and images were taken of cancer tissues and normal tissues using a two-photon fluorescence microscope. […]
In FIG. 13, each image has a size of 300 μm×300 μm, and a scale bar represents 50 μm. A right bar represents a fluorescence signal intensity. […] The panels a and d show the two-photon fluorescence imaging results from the mice into which nothing is injected, the panels b and e show the two-photon fluorescence imaging results from the mice into which 10 μL of a PBS buffer including no compound 1 is injected, and the panels c and f show the […]

In data set [10] the test system is CT-26 cancer cells. The data set is described as follows: Emission wavelengths of fluorescence in cancer cells using an optical fiber. Type of data set: cell-based, mouse. As to conditions: CT-26 cells treated with compound 1 as in Example 12. As for the experimental part: More particularly, CT-26 cancer cells were treated with compound 1 in the same manner as performed in Example 12, and emission wavelengths of fluorescence were then determined using an optical fiber. The optical fiber was connected to a spectrofluorometer (FL1039, HORIBA), and ranges of excitation wavelengths and emission wavelengths are substantially the same as in Example 12. Then, the emission wavelengths of fluorescence were determined.

The structures appear in SMILES notation.

T3 sequence (P51812 whole entry): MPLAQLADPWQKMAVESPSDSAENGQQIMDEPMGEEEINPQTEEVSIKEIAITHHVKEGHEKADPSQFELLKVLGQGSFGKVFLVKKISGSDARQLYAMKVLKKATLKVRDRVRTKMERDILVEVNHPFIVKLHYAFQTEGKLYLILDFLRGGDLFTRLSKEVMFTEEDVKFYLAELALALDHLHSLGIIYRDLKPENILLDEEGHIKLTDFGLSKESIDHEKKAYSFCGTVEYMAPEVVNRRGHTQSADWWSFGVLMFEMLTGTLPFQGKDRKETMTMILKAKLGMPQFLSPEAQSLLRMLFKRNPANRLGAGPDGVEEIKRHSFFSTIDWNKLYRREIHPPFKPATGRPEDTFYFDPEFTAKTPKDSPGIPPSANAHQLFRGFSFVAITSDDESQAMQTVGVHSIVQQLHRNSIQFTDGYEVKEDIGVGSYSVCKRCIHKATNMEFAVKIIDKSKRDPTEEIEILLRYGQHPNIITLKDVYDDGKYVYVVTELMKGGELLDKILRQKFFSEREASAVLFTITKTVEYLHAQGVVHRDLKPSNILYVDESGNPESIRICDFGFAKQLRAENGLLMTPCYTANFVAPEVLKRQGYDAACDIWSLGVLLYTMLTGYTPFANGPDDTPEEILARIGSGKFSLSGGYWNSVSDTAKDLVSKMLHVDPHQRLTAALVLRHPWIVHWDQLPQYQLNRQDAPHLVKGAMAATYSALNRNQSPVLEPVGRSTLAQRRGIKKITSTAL
T2 sequence (P29597 whole entry): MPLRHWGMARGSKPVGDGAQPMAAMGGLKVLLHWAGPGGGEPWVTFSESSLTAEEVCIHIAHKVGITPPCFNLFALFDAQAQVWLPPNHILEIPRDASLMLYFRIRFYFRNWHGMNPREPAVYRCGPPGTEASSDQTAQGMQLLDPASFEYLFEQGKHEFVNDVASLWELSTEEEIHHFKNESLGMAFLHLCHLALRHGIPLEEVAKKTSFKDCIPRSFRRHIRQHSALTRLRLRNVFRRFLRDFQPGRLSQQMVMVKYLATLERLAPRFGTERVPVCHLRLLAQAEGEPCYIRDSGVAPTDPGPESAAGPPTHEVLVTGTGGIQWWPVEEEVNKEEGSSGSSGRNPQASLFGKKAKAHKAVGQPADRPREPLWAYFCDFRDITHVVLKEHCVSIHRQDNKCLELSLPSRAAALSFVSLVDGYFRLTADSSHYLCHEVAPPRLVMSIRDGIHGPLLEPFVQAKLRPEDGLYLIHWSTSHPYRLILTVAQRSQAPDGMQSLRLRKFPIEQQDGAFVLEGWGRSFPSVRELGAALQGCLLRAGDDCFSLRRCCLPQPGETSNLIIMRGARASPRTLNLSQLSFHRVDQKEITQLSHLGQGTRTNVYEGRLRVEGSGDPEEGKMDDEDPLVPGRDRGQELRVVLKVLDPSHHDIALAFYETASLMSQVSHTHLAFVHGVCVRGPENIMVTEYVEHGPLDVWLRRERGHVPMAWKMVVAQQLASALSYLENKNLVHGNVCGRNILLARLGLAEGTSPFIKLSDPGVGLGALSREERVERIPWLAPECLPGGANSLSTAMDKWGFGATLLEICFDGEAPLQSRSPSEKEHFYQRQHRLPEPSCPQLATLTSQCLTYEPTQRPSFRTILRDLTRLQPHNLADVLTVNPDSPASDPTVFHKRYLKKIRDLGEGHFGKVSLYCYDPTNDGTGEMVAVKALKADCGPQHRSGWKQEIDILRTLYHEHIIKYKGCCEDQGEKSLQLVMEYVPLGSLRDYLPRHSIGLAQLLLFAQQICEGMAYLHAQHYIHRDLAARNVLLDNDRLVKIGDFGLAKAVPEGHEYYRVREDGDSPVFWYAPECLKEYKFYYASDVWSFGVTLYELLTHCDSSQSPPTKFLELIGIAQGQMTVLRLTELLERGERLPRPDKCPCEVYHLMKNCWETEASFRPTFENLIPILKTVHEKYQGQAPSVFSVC
T5 sequence (P15056 whole entry): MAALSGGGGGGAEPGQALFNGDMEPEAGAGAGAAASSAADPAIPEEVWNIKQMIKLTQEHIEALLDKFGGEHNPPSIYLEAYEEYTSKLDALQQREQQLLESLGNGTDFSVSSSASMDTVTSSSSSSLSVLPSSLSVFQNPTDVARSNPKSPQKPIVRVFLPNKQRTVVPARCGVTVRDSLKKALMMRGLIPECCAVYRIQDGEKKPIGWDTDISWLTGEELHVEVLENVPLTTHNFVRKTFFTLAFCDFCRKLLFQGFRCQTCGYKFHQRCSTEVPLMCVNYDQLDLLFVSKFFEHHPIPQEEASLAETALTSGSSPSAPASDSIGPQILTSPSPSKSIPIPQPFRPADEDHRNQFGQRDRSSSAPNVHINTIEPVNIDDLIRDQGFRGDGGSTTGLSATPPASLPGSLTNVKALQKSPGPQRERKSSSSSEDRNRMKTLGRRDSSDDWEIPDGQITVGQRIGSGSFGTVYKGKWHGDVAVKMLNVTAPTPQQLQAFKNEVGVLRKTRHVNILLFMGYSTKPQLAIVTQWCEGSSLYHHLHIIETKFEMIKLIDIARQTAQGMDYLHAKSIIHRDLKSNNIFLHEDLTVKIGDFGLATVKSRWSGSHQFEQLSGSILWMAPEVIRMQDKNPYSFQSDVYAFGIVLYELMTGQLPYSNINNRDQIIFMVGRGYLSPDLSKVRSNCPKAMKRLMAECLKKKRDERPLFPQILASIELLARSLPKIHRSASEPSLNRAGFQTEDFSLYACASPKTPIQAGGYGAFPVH
T1 sequence (P16234 24-1089): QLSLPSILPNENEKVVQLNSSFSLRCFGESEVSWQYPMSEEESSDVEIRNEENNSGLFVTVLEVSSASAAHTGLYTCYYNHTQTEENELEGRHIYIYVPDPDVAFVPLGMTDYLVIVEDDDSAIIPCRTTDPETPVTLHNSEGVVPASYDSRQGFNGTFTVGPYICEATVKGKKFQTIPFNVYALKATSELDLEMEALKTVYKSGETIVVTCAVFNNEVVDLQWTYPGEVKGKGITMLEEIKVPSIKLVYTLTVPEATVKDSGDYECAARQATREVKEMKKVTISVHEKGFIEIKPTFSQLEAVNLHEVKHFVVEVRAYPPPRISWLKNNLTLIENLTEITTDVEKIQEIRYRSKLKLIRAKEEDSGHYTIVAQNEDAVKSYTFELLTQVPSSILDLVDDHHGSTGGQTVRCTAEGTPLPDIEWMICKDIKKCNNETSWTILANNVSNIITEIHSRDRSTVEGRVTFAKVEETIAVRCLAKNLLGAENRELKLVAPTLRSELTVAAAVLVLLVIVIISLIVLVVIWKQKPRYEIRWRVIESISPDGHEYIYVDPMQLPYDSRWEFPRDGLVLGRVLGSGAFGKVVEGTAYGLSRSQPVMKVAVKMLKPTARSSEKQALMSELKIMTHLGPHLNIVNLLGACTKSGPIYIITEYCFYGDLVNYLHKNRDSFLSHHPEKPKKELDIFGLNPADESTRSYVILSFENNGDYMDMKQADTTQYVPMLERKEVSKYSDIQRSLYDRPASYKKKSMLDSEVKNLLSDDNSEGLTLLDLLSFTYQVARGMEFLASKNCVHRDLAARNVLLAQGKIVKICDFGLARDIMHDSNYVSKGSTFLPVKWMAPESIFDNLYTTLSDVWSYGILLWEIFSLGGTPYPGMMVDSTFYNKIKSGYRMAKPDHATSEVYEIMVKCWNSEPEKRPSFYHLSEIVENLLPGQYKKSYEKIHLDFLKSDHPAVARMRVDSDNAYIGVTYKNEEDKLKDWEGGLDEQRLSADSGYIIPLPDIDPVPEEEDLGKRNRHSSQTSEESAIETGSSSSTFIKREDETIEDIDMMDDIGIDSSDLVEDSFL

Take `CN(C)c1ccc2cc(C=O)c(O)cc2c1` [compound 1, 6-(dimethylamino)-3-hydroxyl-2-naphthaldehyde]: in data set [1], the cell viability result is given as “more than 90%”. The KINOMEscan percentile value result in data set [2], in data set [3], in data set [4], in data set [6] and in data set [7] was “low percentile value” in each case. Also, the “number of kinase enzymes bound, of a total of 96” value in [5] is on record as “at least 50”. Moreover, the “fluorescence intensity after later treatment of inhibitor” value in data set [8] (24 hours 37° C. with kinase, Mg, ATP, then inhibitor 100 μM for another 24 hours) was “decreased”. Moreover, in [8] (compound 1 100 μM, kinase 0.2 μg/ml, Mg 1 mM, ATP 1 mM, Gleevec 100 μM together), the “fluorescence intensity with inhibitor included” value is listed as “did not selectively bind to the kinase enzymes to cause a sufficient increase in fluorescence intensity”. In addition, the “two-photon fluorescence in cancer tissues versus normal tissues” value in data set [9] (nude mice, ear injection of 10 μL of compound 1 (10 mM), imaged after 30 minutes, ex 880 nm) was “strong fluorescence was selectively observed in the cancer tissues”. Besides, the “3D imaging (two-photon microscopy combined with OCT) fluorescence” value in [9] (same conditions as Example 14, cancer tissues) is given as “fluorescence was strongly emitted from the wide tissues”. In addition, the “emission wavelength of fluorescence in cells” value in data set [10] is “around 550 nm”.

These data come from patent US9958434B2, “Fluorescent probe sensing tyrosine kinase and use thereof” (POSTECH ACADEMY-INDUSTRY FOUNDATION, priority 2013, dated 2018).
